The test addresses T1, HPK1 (Homo sapiens, UniProt Q92918).
T1 construct: purchased Invitrogen
The test is described as follows: HPK1 biochemical enzyme assay (microfluidic mobility shift, Caliper). To be noted: 1.5 nM HPK1 (Invitrogen), 1 mM ATP, 30 min preincubation, 60 min at RT, top concentration 3 μM; read-out: HPK1 1000UMATP caliper IC50. The protocol: Example 20. HPK1 Biochemical Enzyme Assay
HPK1 biochemical enzyme assay: HPK1 enzyme inhibition was measured using a microfluidic mobility shift assay. Reactions were performed in a 384-well plate, containing 1.5 nM HPK1 (Invitrogen), in assay buffer (Cama Biosciences; pH 7.4). Test compounds were titrated in ten point curves (top final assay concentration 3 μM), and preincubated with enzyme/substrate mix for 30 min prior to initiation of the reaction by addition of ATP (1 mM final concentration) and substrate (1 μM final concentration; Carna Biosciences) diluted in assay buffer supplemented by MgCl2 (final assay concentration of 5 mM). Following 60 min incubation at RT, the reaction was terminated by addition of 60 μl/well termination buffer (Carna Biosciences) and signal determination using a Caliper EZ Reader (Perkin Elmer, UK).
T1 sequence (Q92918 whole entry): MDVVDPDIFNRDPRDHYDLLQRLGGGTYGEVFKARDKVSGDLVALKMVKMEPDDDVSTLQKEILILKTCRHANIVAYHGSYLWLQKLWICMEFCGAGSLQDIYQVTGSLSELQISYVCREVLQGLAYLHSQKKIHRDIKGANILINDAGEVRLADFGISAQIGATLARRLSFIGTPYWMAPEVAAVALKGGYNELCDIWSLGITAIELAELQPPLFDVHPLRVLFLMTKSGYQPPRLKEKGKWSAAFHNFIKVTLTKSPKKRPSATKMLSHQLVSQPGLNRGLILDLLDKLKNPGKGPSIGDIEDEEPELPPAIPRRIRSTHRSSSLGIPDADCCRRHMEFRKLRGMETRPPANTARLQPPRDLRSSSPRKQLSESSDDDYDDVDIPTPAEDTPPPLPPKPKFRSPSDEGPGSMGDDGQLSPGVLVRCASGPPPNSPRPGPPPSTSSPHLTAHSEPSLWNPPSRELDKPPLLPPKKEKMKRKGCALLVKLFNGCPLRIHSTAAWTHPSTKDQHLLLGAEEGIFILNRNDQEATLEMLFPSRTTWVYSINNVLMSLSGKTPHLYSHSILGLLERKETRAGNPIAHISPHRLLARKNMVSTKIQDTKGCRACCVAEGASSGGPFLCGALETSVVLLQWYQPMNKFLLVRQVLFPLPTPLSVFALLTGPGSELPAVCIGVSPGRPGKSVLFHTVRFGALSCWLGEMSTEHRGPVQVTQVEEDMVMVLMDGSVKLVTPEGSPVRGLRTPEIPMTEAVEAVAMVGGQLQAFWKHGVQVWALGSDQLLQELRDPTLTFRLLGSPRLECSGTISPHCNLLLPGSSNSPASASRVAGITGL
As a reminder, the IC50 is the concentration at which inhibition is half-maximal. On to `CN1CCN(c2ccc(Nc3ccc(-c4cc(C5CCOCC5)ncn4)c4c3C(=O)NC4)nc2)CC1` [Compound I-69], for which the IC50 was under 1000 nM.

With `CN1CCN(c2ccc(Nc3ccc(-c4ccncc4C4CCOCC4)c4c3C(=O)NC4)nc2)CC1` [Compound I-70, 7-((5-(4-methylpiperazin-1-yl)pyridin-2-yl)amino)-4-(3-(tetrahydro-2H-pyran-4-yl)pyridin-4-yl)isoindolin-1-one], the IC50 was 1000 to 5000 nM.

Regarding `Cn1cncc1-c1ccc(Nc2ccc(N3CCNCC3)cn2)c2c1CNC2=O` [Compound I-71, 4-(1-methyl-1H-imidazol-5-yl)-7-((5-(piperazin-1-yl)pyridin-2-yl)amino) isoindolin-1-one], the IC50 was under 1000 nM.

Take `Cc1ncc(-c2ccc(Nc3ccc(N4CCNCC4)cn3)c3c2CNC3=O)n1C` [Compound I-72, 4-(1,2-dimethyl-1H-imidazol-5-yl)-7-((5-(piperazin-1-yl)pyridin-2-yl)amino) isoindolin-1-one]: the concentration for half-maximal inhibition (IC50) is under 1000 nM.

Regarding `CN1CCN(c2ccc(Nc3cnc(-c4cncn4C)c4c3C(=O)NC4)nc2)CC1` [Compound I-73, 4-(1-methyl-1H-imidazol-5-yl)-7-((5-(4-methylpiperazin-1-yl)pyridin-2-yl)amino)-2,3-dihydro-1H-pyrrolo[3,4-c]pyridin-1-one], the IC50 is under 1000 nM.

Regarding `CN1CCN(c2ccc(Nc3ccc(-c4ccncc4N4CC5CCC(C4)O5)c4c3C(=O)NC4)nc2)CC1` [Compound I-74], the IC50 lay in the range of 1000 to 5000 nM.

As to `O=C1NCc2c(-c3cncn3-c3ccccc3)ccc(Nc3ccc(N4CCNCC4)cn3)c21` [Compound I-75, 4-(1-phenyl-1H-imidazol-5-yl)-7-((5-(piperazin-1-yl)pyridin-2-yl)amino) isoindolin-1-one], the IC50 was under 1000 nM.

For `CN1CCN(c2ccc(Nc3ccc(-c4ccnc(C5CCOC5)c4)c4c3C(=O)NC4)nc2)CC1` (centres unmarked) [Compound I-76], the IC50 was 1000 to 5000 nM.

Turning to `Cn1cnc(-c2ccc(Nc3ccc(N4CCNCC4)cn3)c3c2CNC3=O)c1-c1ccccc1` [Compound I-77, 4-(1-methyl-5-phenyl-1H-imidazol-4-yl)-7-((5-(piperazin-1-yl)pyridin-2-yl)amino) isoindolin-1-one], the IC50 lay in the range of 1000 to 5000 nM.

Take `Cn1c(-c2ccc(Nc3ccc(N4CCNCC4)cn3)c3c2CNC3=O)cnc1-c1ccccc1` [Compound I-78, 4-(1-methyl-2-phenyl-1H-imidazol-5-yl)-7-((5-(piperazin-1-yl)pyridin-2-yl)amino) isoindolin-1-one]: the half-inhibitory concentration (IC50) is under 1000 nM.

In the case of `Cn1cnc(-c2ccccc2)c1-c1ccc(Nc2ccc(N3CCNCC3)cn2)c2c1CNC2=O` [Compound I-79, 4-(1-methyl-4-phenyl-1H-imidazol-5-yl)-7-((5-(piperazin-1-yl)pyridin-2-yl)amino) isoindolin-1-one], the IC50 is under 1000 nM.

Turning to `O=C1NCc2c(-c3cn(-c4ccccc4)cn3)ccc(Nc3ccc(N4CCNCC4)cn3)c21` [Compound I-80, 4-(1-phenyl-1H-imidazol-4-yl)-7-((5-(piperazin-1-yl)pyridin-2-yl)amino) isoindolin-1-one], the IC50 lay in the range of 1000 to 5000 nM.

In the case of `O=C1NCc2c(-n3ccnc3)ccc(Nc3ccc(N4CCNCC4)cn3)c21` [Compound I-81, 4-(1H-imidazol-1-yl)-7-((5-(piperazin-1-yl)pyridin-2-yl)amino) isoindolin-1-one], the IC50 lay within 1000 to 5000 nM.

For `CN1CCN(c2ccc(Nc3ccc(-c4ccnc(N5CC6CCC(C5)O6)n4)c4c3C(=O)NC4)nc2)CC1` [Compound I-82, 4-(2-(8-oxa-3-azabicyclo [3.2.1]octan-3-yl)pyrimidin-4-yl)-7-((5-(4-methylpiperazin-1-yl)pyridin-2-yl)amino) isoindolin-1-one], the IC50 lay in the range of 1000 to 5000 nM.

In the case of `O=C1NCc2c(Cc3ccccc3)ccc(Nc3ccc(N4CCNCC4)cn3)c21` [Compound I-83, 4-benzyl-7-((5-(piperazin-1-yl)pyridin-2-yl)amino) isoindolin-1-one], the IC50 was 1000 to 5000 nM.

Turning to `CN1CCN(c2ccc(Nc3ccc(-c4cn[nH]c4)c4c3C(=O)NC4)nc2)CC1` [Compound I-84, 7-((5-(4-methylpiperazin-1-yl)pyridin-2-yl)amino)-4-(1H-pyrazol-4-yl)isoindolin-1-one], the IC50 is under 1000 nM.

Take `CN1CCN(c2ccc(Nc3ccc(-c4ccnc(C#C[C@H]5CCCO5)c4)c4c3C(=O)NC4)nc2)CC1` [Compound I-85]: the IC50 is under 1000 nM.

As for `CCc1cnc(N)nc1-c1ccc(Nc2ccc(N3CCN(C)CC3)cn2)c2c1CNC2=O` [Compound I-86, 4-(2-amino-5-ethylpyrimidin-4-yl)-7-((5-(4-methylpiperazin-1-yl)pyridin-2-yl)amino) isoindolin-1-one], the IC50 lay in the range of 1000 to 5000 nM.

With `CN1CCN(c2ccc(Nc3ccc(-c4ccc(F)c(C5CCOCC5)c4)c4c3C(=O)NC4)nc2)CC1` [Compound I-87, 4-(4-fluoro-3-(tetrahydro-2H-pyran-4-yl)phenyl)-7-((5-(4-methylpiperazin-1-yl)pyridin-2-yl)amino) isoindolin-1-one], the IC50 was 1000 to 5000 nM.

For the compound `Cn1cc(-c2ccc(Nc3ccc(N4CCNCC4)cn3)c3c2CNC3=O)nc1-c1ccccc1` [Compound I-88, 4-(1-methyl-2-phenyl-1H-imidazol-4-yl)-7-((5-(piperazin-1-yl)pyridin-2-yl)amino) isoindolin-1-one], the IC50 lay in the range of 1000 to 5000 nM.

The values are drawn from patent publication US11926625B2, “HPK1 antagonists and uses thereof” (Nimbus Saturn, Inc., priority 2021, dated 2024).
